Data set [1] is described as follows: Bioavailability in rat at 8 mg/kg, po. The format is ADME, organism-based. The conditions noted are these: in vivo.
A short description of data set [2]: Half life in rat at 0.8 mg/kg, iv. The format is ADME, organism-based. The arrangement: dose 0.8 mg/kg, route intravenous. Particulars: in vivo.
The nature of data set [3]: in vitro. The conditions noted are these: rat, liver microsomes. For orientation: Liver microsomes are a subcellular fraction often used to study metabolism.
A short description of data set [4]: AUC in rat at 8 mg/kg, po. The format is ADME, organism-based. The conditions noted are these: plasma. More on the design: dose 8 mg/kg, route oral.
The nature of data set [5]: Half life in rat at 8 mg/kg, po. The format is ADME, organism-based. More on the design: dose 8 mg/kg, route oral. The conditions noted are these: in vivo.
A short description of data set [6]: in vitro. The conditions noted are these: human, liver microsomes.
Data set [7] in a line: Volume of distribution at steady state in rat at 0.8 mg/kg, iv or 8 mg/kg, po. The format is ADME, organism-based. The conditions noted are these: in vivo, read-out: Vdss.
A short description of data set [8]: Half life in rat at 8.4 mg/kg, po. Particulars: in vivo. The format is ADME, organism-based. The arrangement: dose 8.4 mg/kg, route oral.
The nature of data set [9]: Bioavailability in rat at 8.4 mg/kg, po. The format is ADME, organism-based. The conditions noted are these: in vivo.
A short description of data set [10]: AUC in rat at 8.4 mg/kg, po. The format is ADME, organism-based. More on the design: dose 8.4 mg/kg, route oral. The conditions noted are these: plasma.
A short description of data set [11]: Volume of distribution at steady state in rat at 0.7 mg/kg, iv or 8.4 mg/kg, po. The format is ADME, organism-based. Particulars: in vivo, read-out: Vdss.
A short description of data set [12]: Half life in rat at 0.7 mg/kg, iv. The format is ADME, organism-based. More on the design: dose 0.7 mg/kg, route intravenous. The conditions noted are these: in vivo.
A short description of data set [13]: Volume of distribution at steady state in rat at 1.0 mg/kg, iv or 11.6 mg/kg, po. The format is ADME, organism-based. The conditions noted are these: in vivo, read-out: Vdss.
Data set [14] in a line: AUC in rat at 11.6 mg/kg, po. The arrangement: dose 11.6 mg/kg, route oral. The format is ADME, organism-based. Particulars: plasma.
A short description of data set [15]: Bioavailability in rat at 11.6 mg/kg, po. The format is ADME, organism-based. The conditions noted are these: in vivo.
Data set [16] in a line: Half life in rat at 11.6 mg/kg, po. The format is ADME, organism-based. The arrangement: dose 11.6 mg/kg, route oral. Particulars: in vivo.
Data set [17] can be described thus: Half life in rat at 1.0 mg/kg, iv. The format is ADME, organism-based. More on the design: dose 1 mg/kg, route intravenous. The conditions noted are these: in vivo.

In the case of `Cn1cnc2ccc(-c3ccc(Cl)cc3Cl)c(CN)c21`, the bioavailability in [1] was 100%. In addition, the half-life is 7 h in [2], 0.767 h in [3], 4.4 h in data set [5] and above 3.33 h in data set [6]. The exposure (AUC) in [4] turned out to be 11500 ng·h/mL. Moreover, in data set [7], the Vd was found to be 4.81 L/kg.
With `Cn1cnc2ccc(-c3ccccc3)c(CN)c21`, the half-life in [3] was found to be 0.767 h; in data set [6], 1.55 h.
On the same counts, the results for `Cn1cnc2ccc(-c3ccccc3CO)c(CN)c21` are 0.65 h and 1.67 h.
The corresponding values for `Cn1nnc2ccc(-c3ccccc3Cl)c(CN)c21` are 0.217 h and 0.483 h.
Take `Cc1ccccc1-c1ccc2ncn(C)c2c1CN`: the half-life worked out at 0.467 h in [3] and 3.05 h in data set [6].
On the same counts, the results for `CCn1cnc2ccc(-c3ccc(Cl)cc3Cl)c(CN)c21` are 0.7 h and above 3.33 h.
On the same counts, the results for `Cc1nc2ccc(-c3ccccc3Cl)c(CN)c2n1C` are 0.117 h and above 3.33 h.
Turning to `Cn1cnc2cc(Br)c(-c3ccccc3Cl)c(CN)c21`, the half-life amounted to 0.4 h in data set [3] and 2.93 h in data set [6].
In the case of `Cn1c(=O)[nH]c2ccc(-c3ccccc3Cl)c(CN)c21`, the half-life was 4 h in data set [8], 1.27 h in data set [3], above 3.33 h in data set [6] and 4.2 h in [12]. Further, the bioavailability in data set [9] came out at 49%. The compound further had an exposure (AUC) in [10] of 9000 ng·h/mL. Further, the Vd in [11] was 1.14 L/kg.
`Cn1c(-c2cccnc2)nc2ccc(-c3ccccc3Cl)c(CN)c21`: the half-life in data set [3] is 0.433 h; in data set [6], 1.6 h.
In the case of `COCc1nc2ccc(-c3ccccc3Cl)c(CN)c2n1C`, the values for the half-life in data set [3] and in data set [6] were 0.183 h and above 3.33 h, respectively.
On the same counts, the results for `CCc1nc2ccc(-c3ccccc3Cl)c(CN)c2n1C` are 0.0333 h and above 3.33 h.
On the same counts, the results for `Cn1cnc2ccc(-c3ccccc3Cl)c(CN)c21` are 0.95 h and above 3.33 h.
As for `Cn1cnc2cc(C#N)c(-c3ccccc3Cl)c(CN)c21`, the Vd in data set [13] came to 1.07 L/kg. The same compound came in with an exposure (AUC) in [14] of 22100 ng·h/mL. In addition, the half-life in data set [3] was 0.633 h; in [16], 2.9 h; in data set [17] it was 3.8 h; in data set [6], above 3.33 h. The bioavailability in [15] came out at 122%.
For the compound `Cn1cnc2cc(C(N)=O)c(-c3ccccc3Cl)c(CN)c21`, the half-life in data set [3] and in [6] was above 3.33 h in each case.
For the compound `NCc1c(-c2ccccc2Cl)ccc2ncn(CCO)c12`, the results for the half-life in [3] and in [6] were 0.533 h and above 3.33 h, respectively.
With `NCc1c(-c2ccccc2Cl)ccc2ncn(Cc3ccccc3)c12`, the half-life is 0.0667 h in data set [3] and 0.133 h in data set [6].
The corresponding values for `NCc1c(-c2ccc(Cl)cc2Cl)ccc2nc[nH]c12` are 0.767 h and 2.15 h.

Broadly, the half-life is how long it takes for the measured level to halve. Low values mean fast loss, high ones slow loss. A word on the AUC: it is concentration integrated over time. Low readings indicate low exposure, high ones high exposure.

These data come from ChEMBL document CHEMBL1143921, “Structure-based design and synthesis of benzimidazole derivatives as dipeptidyl peptidase IV inhibitors” (Bioorg Med Chem Lett, 2008).
